Each block holds one molecule with its values, some of them ahead of it. The source made the active and inactive calls. The rule behind the calls is not given here.
Columns and labels:
[1] = target: T1, Glucagon-like peptide 1 receptor (Homo sapiens, UniProt P43220); test: Positive allosteric modulator activity at human GLP-1R expressed in HEK293 cells assessed as fold increase in potentiation of GLP-1(9-36) induced cAMP accumulation in presence of IBMX relative to GLP-1(9-36); format: functional, cell-based
T1 sequence (P43220 whole entry): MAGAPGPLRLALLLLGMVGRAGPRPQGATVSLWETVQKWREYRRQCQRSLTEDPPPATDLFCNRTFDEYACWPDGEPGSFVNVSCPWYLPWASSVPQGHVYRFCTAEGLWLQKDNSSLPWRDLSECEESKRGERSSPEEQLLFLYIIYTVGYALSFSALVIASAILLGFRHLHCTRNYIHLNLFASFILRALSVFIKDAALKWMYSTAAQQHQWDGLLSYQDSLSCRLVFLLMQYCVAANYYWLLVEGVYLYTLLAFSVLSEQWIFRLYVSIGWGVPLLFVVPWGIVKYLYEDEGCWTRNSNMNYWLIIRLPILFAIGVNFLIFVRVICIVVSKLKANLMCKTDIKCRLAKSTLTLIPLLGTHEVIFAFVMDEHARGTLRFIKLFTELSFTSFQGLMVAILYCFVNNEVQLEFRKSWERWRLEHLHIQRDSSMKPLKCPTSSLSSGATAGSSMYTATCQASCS

[2] = target: T1, Glucagon-like peptide 1 receptor; test: Positive allosteric modulator activity at human GLP-1R expressed in HEK293 cells assessed as potentiation of GLP-1(9-36) induced cAMP accumulation by measuring maximal efficacy in presence of IBMX relative to GLP-1(9-36); format: functional, cell-based; settings: filed as positive allosteric modulator
[3] = target: T1, Glucagon-like peptide 1 receptor; test: Positive allosteric modulator activity at human GLP-1R expressed in HEK293 cells assessed as potentiation of EC20 GLP-1(9-36) induced cAMP accumulation in presence of IBMX relative to GLP-1(9-36); format: functional, cell-based
[4] = target: T1, Glucagon-like peptide 1 receptor; test: Positive allosteric modulator activity at human GLP-1R expressed in HEK293 cells assessed as potentiation of EC20 GLP-1(9-36) induced cAMP accumulation by measuring maximal efficacy in presence of IBMX relative to GLP-1(9-36); format: functional, cell-based; settings: filed as positive allosteric modulator
Mus musculus [5] = test: (§1) Anti-hyperglycemic activity in overnight-fasted GIPR KO C57BL/6 mouse assessed as reduction in blood glucose AUC at 10 mg/kg, po pretreated with compound for 30 mins followed by dextrose addition measured every 15 mins for 60 mins by oral glucose tolerance test relative to control; format: functional; design: scale not given: the % may be the effect or the level left; settings: time 90 min, 1.5 h
[6] = Clearance in CD1 mouse at 1 mg/kg, iv measured upto 8 hrs by LC-MS/MS analysis; format: ADME, organism-based; settings: in vivo
[7] = AUC in CD1 mouse at 1 mg/kg, iv measured upto 8 hrs by LC-MS/MS analysis; format: ADME, organism-based; design: time < 8 hrs, dose 1 mg/kg, route iv; settings: in vivo
[8] = Cmax in CD1 mouse at 1 mg/kg, iv measured upto 8 hrs by LC-MS/MS analysis; format: ADME, organism-based; design: time < 8 hrs, dose 1 mg/kg, route iv; settings: in vivo
[9] = Half life in CD1 mouse at 1 mg/kg, iv measured upto 8 hrs by LC-MS/MS analysis; format: ADME, organism-based; settings: in vivo
[10] = Volume of distribution at steady state in CD1 mouse at 1 mg/kg, iv measured upto 8 hrs by LC-MS/MS analysis; format: ADME, organism-based; settings: in vivo, read-out: Vdss
[11] = AUC in CD1 mouse at 3 mg/kg, po measured upto 16 hrs by LC-MS/MS analysis; format: ADME, organism-based; design: dose 3 mg/kg, time < 16 hrs, route po; settings: in vivo
[12] = Cmax in CD1 mouse at 3 mg/kg, po measured upto 16 hrs by LC-MS/MS analysis; format: ADME, organism-based; design: dose 3 mg/kg, time < 16 hrs, route po; settings: in vivo
[13] = Half life in CD1 mouse at 3 mg/kg, po measured upto 16 hrs by LC-MS/MS analysis; format: ADME, organism-based; settings: in vivo
[14] = Tmax in CD1 mouse at 3 mg/kg, po measured upto 16 hrs by LC-MS/MS analysis; format: ADME, organism-based; settings: in vivo
[15] = Oral bioavailability in CD1 mouse at 3 mg/kg measured upto 16 hrs by LC-MS/MS analysis; format: ADME, organism-based; settings: in vivo
[16] = AUC in Sprague-Dawley rat at 1 mg/kg, iv measured upto 8 hrs by LC-MS/MS analysis; format: ADME, organism-based; design: time < 8 hrs, dose 1 mg/kg, route iv; settings: in vivo
[17] = Cmax in Sprague-Dawley rat at 1 mg/kg, iv measured upto 8 hrs by LC-MS/MS analysis; format: ADME, organism-based; design: dose 1 mg/kg, time < 8 hrs, route iv; settings: in vivo
[18] = Half life in Sprague-Dawley rat at 1 mg/kg, iv measured upto 8 hrs by LC-MS/MS analysis; format: ADME, organism-based; settings: in vivo
[19] = Volume of distribution at steady state in Sprague-Dawley rat at 1 mg/kg, iv measured upto 8 hrs by LC-MS/MS analysis; format: ADME, organism-based; settings: in vivo, read-out: Vdss
[20] = Clearance in Sprague-Dawley rat at 1 mg/kg, iv measured upto 8 hrs by LC-MS/MS analysis; format: ADME, organism-based; settings: in vivo
[21] = AUC in Sprague-Dawley rat at 3 mg/kg, po measured upto 16 hrs by LC-MS/MS analysis; format: ADME, organism-based; design: dose 3 mg/kg, time < 16 hrs, route po; settings: in vivo
[22] = Cmax in Sprague-Dawley rat at 3 mg/kg, po measured upto 16 hrs by LC-MS/MS analysis; format: ADME, organism-based; design: time < 16 hrs, dose 3 mg/kg, route po; settings: in vivo
[23] = Half life in Sprague-Dawley rat at 3 mg/kg, po measured upto 16 hrs by LC-MS/MS analysis; format: ADME, organism-based; settings: in vivo
[24] = Tmax in Sprague-Dawley rat at 3 mg/kg, po measured upto 16 hrs by LC-MS/MS analysis; format: ADME, organism-based; settings: in vivo
[25] = Oral bioavailability in Sprague-Dawley rat at 3 mg/kg measured upto 16 hrs by LC-MS/MS analysis; format: ADME, organism-based; settings: in vivo
[26] = AUC in Beagle dog at 1 mg/kg, iv measured upto 8 hrs by LC-MS/MS analysis; format: ADME, organism-based, Canis lupus familiaris; design: time < 8 hrs, dose 1 mg/kg, route iv; settings: in vivo
[27] = Cmax in Beagle dog at 1 mg/kg, iv measured upto 8 hrs by LC-MS/MS analysis; format: ADME, organism-based, Canis lupus familiaris; design: time < 8 hrs, dose 1 mg/kg, route iv; settings: in vivo
[28] = Half life in Beagle dog at 1 mg/kg, iv measured upto 8 hrs by LC-MS/MS analysis; format: ADME, organism-based, Canis lupus familiaris; settings: in vivo
[29] = Volume of distribution at steady state in Beagle dog at 1 mg/kg, iv measured upto 8 hrs by LC-MS/MS analysis; format: ADME, organism-based, Canis lupus familiaris; settings: in vivo, read-out: Vdss
[30] = Clearance in Beagle dog at 1 mg/kg, iv measured upto 8 hrs by LC-MS/MS analysis; format: ADME, organism-based, Canis lupus familiaris; settings: in vivo
[31] = target: T1, Glucagon-like peptide 1 receptor; test: Agonist activity at human GLP-1R expressed in HEK293 cells assessed as potentiation of GLP-1(7-36) induced cAMP accumulation; format: functional, cell-based
[32] = target: T1, Glucagon-like peptide 1 receptor; test: Partial agonist activity at human GLP-1R expressed in HEK293 cells assessed as potentiation of GLP-1(9-36) induced cAMP accumulation in presence of IBMX; format: functional, cell-based
[33] = target: T1, Glucagon-like peptide 1 receptor; test: Partial agonist activity at human GLP-1R expressed in HEK293 cells assessed as potentiation of GLP-1(9-36) induced cAMP accumulation by measuring maximal efficacy in presence of IBMX relative to GLP-1(9-36); format: functional, cell-based
[34] = target: T1, Glucagon-like peptide 1 receptor; test: Agonist activity at human GLP-1R expressed in HEK293 cells assessed as potentiation of GLP-1(9-36) induced cAMP accumulation by measuring maximal efficacy at 0.12 uM in presence of IBMX relative to GLP-1(9-36); format: functional, cell-based; settings: filed as agonist
[35] = target: T1, Glucagon-like peptide 1 receptor; test: Agonist activity at human GLP-1R expressed in HEK293 cells assessed as potentiation of GLP-1(9-36) induced cAMP accumulation in presence of IBMX; format: functional, cell-based
[36] = target: T1, Glucagon-like peptide 1 receptor; test: Agonist activity at human GLP-1R expressed in CHO-K1 cells assessed as fold increase in potentiation of EC50 GLP-1(7-36) induced beta-arrestin recruitment; format: functional, cell-based
[37] = target: T1, Glucagon-like peptide 1 receptor; test: Agonist activity at human GLP-1R expressed in CHO-K1 cells assessed as potentiation of GLP-1(9-36) induced beta-arrestin recruitment by measuring maximal efficacy relative to GLP-1(9-36); format: functional, cell-based
[38] = target: T1, Glucagon-like peptide 1 receptor; test: Agonist activity at human GLP-1R expressed in CHO-K1 cells assessed as potentiation of GLP-1(9-36) induced beta-arrestin recruitment; format: functional, cell-based
[39] = target: T1, Glucagon-like peptide 1 receptor; test: Positive allosteric modulator activity at human GLP-1R transfected in rat INS-1 832/13 cells assessed as fold increase in potentiation of GLP-1(7-36) induced cAMP accumulation at 0.1 uM; format: functional, cell-based
[40] = target: T1, Glucagon-like peptide 1 receptor; test: Positive allosteric modulator activity at human GLP-1R transfected in rat INS-1 832/13 cells assessed as potentiation of GLP-1(9-36) induced cAMP accumulation; format: functional, cell-based
[41] = target: T1, Glucagon-like peptide 1 receptor; test: Positive allosteric modulator activity at human GLP-1R transfected in rat INS-1 832/13 cells assessed as potentiation of GLP-1(9-36) induced cAMP accumulation by measuring maximal efficacy at 3 uM relative to GLP-1(9-36); format: functional, cell-based; settings: filed as positive allosteric modulator
[42] = target: T1, Glucagon-like peptide 1 receptor; test: Positive allosteric modulator activity at human GLP-1R transfected in rat INS-1 832/13 cells assessed as increase in GLP-1(9-36) induced insulin levels at 3 uM in presence of high glucose; format: cell-based; settings: filed as positive allosteric modulator
Mus musculus [43] = test: (§2) Anti-hyperglycemic activity in overnight-fasted GIPR KO C57BL/6 mouse assessed as reduction in blood glucose AUC at 30 mg/kg, po pretreated with compound for 30 mins followed by dextrose addition measured every 15 mins for 60 mins by oral glucose tolerance test relative to control; format: functional; design: scale not given: the % may be the effect or the level left; settings: time 90 min, 1.5 h
Mus musculus [44] = test: as §1, with “60 mins in presence of sitagliptin by oral” for “60 mins by oral”; format: functional; design: scale not given: the % may be the effect or the level left; settings: time 90 min, 1.5 h
Mus musculus [45] = test: as §2, with “60 mins in presence of sitagliptin by oral” for “60 mins by oral”; format: functional; design: scale not given: the % may be the effect or the level left; settings: time 90 min, 1.5 h

clearance [6]: 9 mL/min/kg | fold change (FC) [1]: 830 | Emax [2]: 102% | EC50 [3]: 270 nM | Emax [4]: 98% | AUC at 8 h [7]: 3.64 µM·h | Cmax [8]: 1430 nM | half-life [9]: 126 min | Vd [10]: 1.6 L/kg | AUC at 16 h [11]: 7.3 µM·h | Cmax [12]: 2040 nM | half-life [13]: 96 min | Tmax [14]: 34.8 min | bioavailability [15]: 67% | AUC at 8 h [16]: 0.859 µM·h | Cmax [17]: 1420 nM | half-life [18]: 36 min | Vd [19]: 1.6 L/kg | clearance [20]: 41.9 mL/min/kg | AUC at 16 h [21]: 1.16 µM·h | Cmax [22]: 183 nM | half-life [23]: 174 min | Tmax [24]: 1.8 h | bioavailability [25]: 45% | AUC at 8 h [26]: 1.88 µM·h | Cmax [27]: 6.87 µM | half-life [28]: 36 min | Vd [29]: 0.3 L/kg | clearance [30]: 18.5 mL/min/kg | EC50 [31]: 0.085 nM | EC50 [32]: 1800 nM | Emax [33]: 13% | Emax [34]: 92% | EC50 [35]: 7 nM | fold change (FC) [36]: 1.9 | Emax [37]: 10% | EC50 [38]: 12 nM | fold change (FC) [39]: 2.7 | EC50 [40]: 7 nM | Emax [41]: 87% | Activity [42]: Active
Compound: C[C@H](c1c(Cl)ccc(C2CC2)c1Cl)n1cnc2cnc(-c3ccccc3[C@@H](C)C(=O)O)cc21
Activity (Mus musculus [5]): 9% | Activity (Mus musculus [43]): 40% | Activity (Mus musculus [44]): 29% | Activity (Mus musculus [45]): 65%

fold change (FC) [1]: 7300 | Emax [2]: 103% | EC50 [3]: 14 nM | Emax [4]: 104%
Compound: CC(C(=O)O)c1ccccc1-c1cc2c(cn1)ncn2[C@H](C)c1c(Cl)ccc(C2CC2)c1Cl (some centres not stated)

Second part, the molecule before the results:

Compound: C[C@H](c1c(Cl)ccc(C2CC2)c1Cl)n1cnc2cnc(Br)cc21
fold change (FC) [1]: 300 | Emax [2]: 110% | EC50 [3]: 1800 nM | Emax [4]: 113%

Compound: N[C@@H](CC(=O)N1CCn2c(nnc2C(F)(F)F)C1)Cc1cc(F)c(F)cc1F [SITAGLIPTIN]
Activity (Mus musculus [5]): 18%

Compound: COc1ccc(Cl)c([C@@H](C)n2cnc3ccc(Br)cc32)c1Cl
fold change (FC) [1]: 250 | Emax [2]: 115% | EC50 [3]: 800 nM | Emax [4]: 102%

Compound: COc1ccc(Cl)c([C@@H](C)n2cnc3ccc(-c4ccccc4[C@H]4CCCCN4)cc32)c1Cl
fold change (FC) [1]: 15000 | Emax [2]: 88% | EC50 [3]: 24 nM | Emax [4]: 120%

Source: ChEMBL document CHEMBL5096166, “Discovery of an Orally Efficacious Positive Allosteric Modulator of the Glucagon-like Peptide-1 Receptor” (J Med Chem, 2021)
